Results on 17 compounds are retold here after patent US5719287A, “Intermediates for inhibitors of HIV protease and method of preparation thereof” (Eli Lilly and Company, priority 1995, dated 1998).

In the first test the target is T1, HIV-1 protease (Human immunodeficiency virus type 1 group M subtype B, UniProt P04585).
T1 construct: Purified HIV-1 protease was obtained as described below; made in house; host or cells: E. coli K12 L507/pHP10D (NRRL B-18560)
Kind of test: biochemical. The conditions noted are these: purified HIV-1 protease, MES-ALB buffer pH 5.5; 1 h preincubation, 16 h with substrate, room temperature; IC50 values for Examples 2-70 are standardized relative to Ex 1; read-out: Fluorescence Assay IC50 (converted). The procedure: N^α -Biotin-[…]Ne-FITC)-OH
The purified peptide was labeled as follows with a fluorescent marker at the C-terminal end for use in the assay. N^α -Biotin-Gly-Ser-Gln-Asn-Tyr-Pro-lle-Val-Gly-Lys-OH (1.206 g, 0.936 mmoles) was dissolved in 100 mL of 0.1M sodium borate, pH 9.5 with stirring. Then, 3 g of fluorescein isothiocyanate (7.7 mmol) was dissolved in 15 mL dimethyl sulfoxide and the solution added to the reaction in 10 equal portions over the course of a two hour period. The reaction was allowed to proceed for a further one hour after the final addition had been made. The pH of the solution was adjusted to 3 with 5N HCl. A precipitate formed which was removed from the reaction by centrifugation.
Fluorescence HIV-1 Protease Inhibitor Assay Procedure.
To each well of a round bottom, 96-well plate is added 20 μl of the Enzyme Solution followed by 10 μl of the compound to be evaluated in 20% aqueous DMSO. Purified HIV-1 protease was obtained as described below. The solution is incubated for one hour at room temperature and then 20 μl of a solution of the substrate N^α -Biotin-[…]N^e -FITC)-OH, in MES-ALB buffer (1.5 μl/ml) is added to each well. The solutions are incubated for 16 hours at room temperature and thereafter to each well is added 150 μl of MES-ALB buffer.
To each well of a 96-well Pandex plate is added 25 μl of the Avidin Coated Beads Solution. Next, 25 μl of the diluted incubation solutions, described above, are added to each well of the Pandex plate. The solutions are mixed well and the plates are loaded into a Pandex® machine, washed, evacuated and read. Sample detection was performed by excitation at 485 nm and reading the resulting epifluorescence at 535 nm.
A culture of E. coli K12 L507/pHP10D was grown to mid-log phase at 32° C. in LB media containing 12.5 μg/ml tetracycline. The cultivation temperature was quickly elevated to 40° C. to induce gene expression, and the cells were allowed to grow for 2.5 hours at this temperature before the culture was quickly chilled on ice. The cells were centrifuged and the cell pellet was resuspended in 20 ml 50 mmol MES buffer (pH 6.0) containing 1 mmol EDTA, 1 mmol DTT, 1 mmol PMSF, and 10% glycerol (Buffer A). Cells were lysed by sonication using a Fischer Model 300 Dismembrator and a microtip probe. […] Enzymatic activity was measured by HPLC using the synthetic peptide SQNYPIV as described in Margolin et al., Biochem. Biophys. Res. Commun., 167, 554-560 (1990); the production of the pl peptide (SQNY) was measured.
Active fractions were pooled, made 1.2M in ammonium sulfate, and applied to a hexyl agarose column (2.0×18 cm) equilibrated in Buffer A containing 1.2M ammonium sulfate. The sample, in 125 ml (1.85 mg/ml), was loaded at a flow rate of 1 ml/min at 4° C. […] The column was then washed isocratically in Buffer A for 120 min. Active fractions were pooled, concentrated to 10 ml using an Amicon stirred cell with a YM-10 membrane, and applied at 1 ml/min to a MonoS cation exchange column (1.0×10 cm) equilibrated in Buffer A. After washing isocratically for 30 min, protease was eluted using a linear gradient of 0-0.45M NaCl in Buffer A over 40 min followed by an isocratic wash with Buffer A containing 0.45M NaCl over 30 min. Chromatography was performed at 25° C.
Pooled active fractions were concentrated to 200 ul using an Amicon stirred cell and a YM-10 membrane, and the protease was then applied to a Superose 6 size exclusion column equilibrated in Buffer A containing 0.1M NaCl. The column was washed isocratically in this buffer at a flow rate of 0.5 ml/min.
In general, IC50 refers to the concentration that gives 50% inhibition. `CC(C)[C@H](NC(=O)c1cnc2ccccc2n1)C(=O)N[C@@H](Cc1ccccc1)[C@H](O)Cc1ccccc1C(=O)NC(C)(C)C` [Example 34, [1S-(1R*, 4R*, 5S*)]-N-(1-(1-methylethyl)-2-oxo-3-aza-4-phenylmethyl-5-hydroxy-6-(2-(1-t-butylamino-1-oxomethyl)phenyl)hexyl)-2-quinoxalinyl acetamide]: the IC50 was 7.55 nM.

Turning to `CC(C)[C@H](NC(=O)c1ccc2ccccc2c1)C(=O)N[C@@H](Cc1ccccc1)[C@H](O)Cc1ccccc1C(=O)NC(C)(C)C` [Example 35], the half-inhibitory concentration (IC50) is 131 nM.

Still in this test, the particulars now being: read-out: Fluorescence Assay IC50 (converted).
For the compound `Cc1cc2ccccc2nc1C(=O)N[C@@H](CC(N)=O)C(=O)N[C@@H](Cc1ccccc1)[C@H](O)Cc1ccccc1C(=O)NC(C)(C)C` [Example 27, [1S-(1R*, 4R*. 5S*) ]-N-(1-(2-amino-2-oxoethyl)-2-oxo-3-aza-4-phenylmethyl-5-hydroxy-6-(2-(1-t-butylamino-1-oxomethyl)phenyl)hexyl)-3-methylquinolin-2-yl carboxamide], the 50% inhibitory concentration (IC50) was 8.18 nM. On the same count and under the same terms, in the case of `CC(C)(C)NC(=O)c1ccccc1C[C@@H](O)[C@H](Cc1ccccc1)NC(=O)[C@H](CC(N)=O)NC(=O)c1ccccc1` [Example 28, [1S-(1R*, 4R*, 5S*)]-N-(1-(2-amino-2-oxoethyl)-2-oxo-3-aza-4-phenylmethyl-5-hydroxy-6-(2-(1-t-butylamino-1-oxomethyl)phenyl)hexyl)phenyl carboxamide] it was 12.5 nM; in that of `CC(C)(C)NC(=O)c1ccccc1C[C@@H](O)[C@H](Cc1ccccc1)NC(=O)[C@H](CC(N)=O)NC(=O)c1ccccn1` [Example 29, [1S-(1R*, 4R*, 5S*)]-N-(1-(2-amino-2-oxoethyl)-2-oxo-3-aza-4-phenylmethyl-5-hydroxy-6-(2-(1-t-butylamino-1-oxomethyl)phenyl)hexyl)-2-pyridyl carboxamide], 129 nM. Still for that read-out and setting: in the case of `CC(C)(C)NC(=O)c1ccccc1C[C@@H](O)[C@H](Cc1ccccc1)NC(=O)[C@H](CC(N)=O)NC(=O)c1cc2ccccc2cn1` [Example 30, [1S-(1R*, 4R*, 5S*)]-N-(1-(2-amino-2-oxoethyl)-2-oxo-3-aza-4-phenylmethyl-5-hydroxy-6-(2-(1-t-butylamino-1-oxomethyl)phenyl)hexyl)-3-isoquinolinyl carboxamide] it was 11.8 nM.

With `CC(C)(C)NC(=O)c1ccccc1C[C@@H](O)[C@H](Cc1ccccc1)NC(=O)[C@H](CC(N)=O)NC(=O)Cc1ccc2ccccc2c1` [Example 31, [1S-(1R*, 4R*, 5S*)]-N-(1-(2-amino-2-oxoethyl)-2-oxo-3-aza-4-phenylmethyl-5-hydroxy-6-(2-(1-t-butylamino-1-oxomethyl)phenyl)hexyl)-2-naphthyl acetamide], the IC50 is 11.4 nM. On the same count and under the same terms, the value for `CC(C)(C)NC(=O)c1ccccc1C[C@@H](O)[C@H](Cc1ccccc1)NC(=O)[C@H](CC(N)=O)NC(=O)COc1ccc2ccccc2n1` [Example 32, [1S-(1R*, 4R*, 5S*)]-N-(1-(2-amino-2-oxoethyl)-2-oxo-3-aza-4-phenylmethyl-5-hydroxy-6-(2-(1-t-butylamino-1-oxomethyl)phenyl)hexyl)-2-quinolinoxy acetamide] was 3.75 nM; that for `CCC(C)[C@H](NC(=O)OCc1ccc2ccccc2n1)C(=O)N[C@@H](Cc1ccccc1)[C@H](O)Cc1ccccc1C(=O)NC(C)(C)C` (stereo partly drawn) [Example 38, [2R-(2R*, 3S*, 6S*)]-N-t-butyl-2-(2-hydroxy-3-phenylmethyl-4-aza-5-oxo-6-(1-methylpropyl)-6-(N-quinolin-2-ylmethoxycarbonylamino)hexyl)benzamide] was 1.21 nM; that for `CCC(C)[C@H](NC(=O)N(C)Cc1ccc2ccccc2n1)C(=O)N[C@@H](Cc1ccccc1)[C@H](O)Cc1ccccc1C(=O)NC(C)(C)C` (stereo partly drawn) [Example 39, [2R-(2R*, 3S*, 6S*)]-N-t-butyl-2-(2-hydroxy-3-phenylmethyl-4-aza-5-oxo-6-(1-methylpropyl)-7-aza-8-oxo-8-(N-methyl-N-quinolin-2-ylmethylamino)octyl)benzamide] was 5.06 nM.

Regarding `CC(C)(C)NC(=O)c1occc1C[C@@H](O)[C@H](Cc1ccccc1)NC(=O)[C@H](CC(N)=O)NC(=O)c1ccc2ccccc2n1` [Example 40, [1S-(1R*, 4R*, 5S*)]-N-(1-(2-amino-2-oxoethyl)-2-oxo-3-aza-4-phenylmethyl-5-hydroxy-6-(2-(1-t-butylamino-1-oxomethyl)fur-3-yl)hexyl)-2-quinolinyl carboxamide], the IC50 is 46.7 nM. In the case of `CC(C)(C)NC(=O)c1sccc1C[C@@H](O)[C@H](Cc1ccccc1)NC(=O)[C@H](CC(N)=O)NC(=O)c1ccc2ccccc2n1` [Example 41, [1S-(1R*, 4R*. 5S*) ]-N-(1-(2-amino-2-oxoethyl)-2-oxo-3-aza-4-phenylmethyl-5-hydroxy-6-(2-(1-t-butylamino-1-oxomethyl)thien-3-yl)hexyl)-2-quinolinyl carboxamide], the 50% inhibitory concentration (IC50) is 13 nM. In the case of `CC(C)(C)NC(=O)c1oc2ccccc2c1C[C@@H](O)[C@H](Cc1ccccc1)NC(=O)[C@H](CC(N)=O)NC(=O)c1ccc2ccccc2n1` [Example 42, [1S-(1R*, 4R*, 5S*)]-N-(1-(2-amino-2-oxoethyl)-2-oxo-3-aza-4-phenylmethyl-5-hydroxy-6-(2-(1-t-butylamino-1-oxomethyl)benzofur-3-yl)hexyl)-2-quinolinyl carboxamide], the IC50 is 523 nM. Same read-out and setting: in the case of `CC(C)(C)NC(=O)c1ccccc1C[C@@H](O)[C@H](Cc1ccccc1)NC(=O)[C@H](CC(=O)O)NC(=O)c1ccc2ccccc2n1` [Example 43, [1S-(1R*, 4R*, 5S*)]-N-(1-(2-hydroxy-2-oxoethyl)-2-oxo-3-aza-4-phenylmethyl-5-hydroxy-6-(2-(1-t-butylamino-1-oxomethyl)phenyl)hexyl)-2-quinolinyl carboxamide] it was 2.13 nM; in that of `CC(C)(C)NC(=O)c1ccccc1C[C@@H](O)[C@H](Cc1ccccc1)NC(=O)[C@H](CCC(=O)O)NC(=O)c1ccc2ccccc2n1` [Example 44, [1S-(1R*, 4R*, 5S*)]-N-(1-(3-hydroxy-3-oxopropyl)-2-oxo-3-aza-4-phenylmethyl-5-hydroxy-6-(2-(1-t-butylamino-1-oxomethyl)phenyl)hexyl)-2-quinolinyl carboxamide], 2.08 nM; in that of `CC(C)(C)NC(=O)c1ccccc1C[C@@H](O)[C@H](Cc1ccccc1)NC(=O)[C@H](CC(=O)NCc1ccccn1)NC(=O)c1ccc2ccccc2n1` [Example 45, [1S-[1R*, 4R*, 5S*)]-N-(1-(2-(N-2-pyridylmethyl)amino)-2-oxoethyl]-2-oxo-3-aza-4-phenylmethyl-5-hydroxy-6-(2-(1-t-butylamino-1-oxomethyl)phenyl)hexyl)-2quinolinyl carboxamide], 1.26 nM. Regarding `CC(C)(C)NC(=O)c1ccccc1C[C@@H](O)[C@H](Cc1ccccc1)NC(=O)[C@H](CC(=O)NCc1ncc[nH]1)NC(=O)c1ccc2ccccc2n1` [Example 46, [1S-(1R*, 4R*, 5S*)]-N-(1-(2-(N-2-imidazolylmethyl)amino)-2-oxoethyl)-2-oxo-3-aza-4-phenylmethyl-5-hydroxy-6-(2-(1-t-butylamino-1-oxomethyl)phenyl)hexyl)-2-quinolinyl carboxamide], the IC50 was 1.88 nM.
